Here are results for 25 compounds from patent US20240132431A1, “METHOD FOR ALKYLATING ACIDIC FUNCTIONAL GROUP” (Chugai Seiyaku Kabushiki Kaisha, priority 2021, published 2024).

The target of this test is T1, Bcl-2 protein (Recombinant Human Bcl-2 Protein) (Homo sapiens, UniProt P10415).
T1 construct: purchased Novus NBP2-34889
The test can be described thus: Binding evaluation of mixture library compounds to Bcl-2 using AS-MS (affinity selection mass spectrometry). As to conditions: AS-MS, mixture of 1200 compounds, Bcl-2, ASMS Ratio(%)=(A−C)/B×100; for ASMS ratio (%) n = 1: replicate n = 1; for ASMS ratio (%) n = 2: replicate n = 2. In outline:
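ASMS Ratio (%) was calculated as (A−C)/B×100, where A is the protein sample after SEC, B the protein-free sample without SEC and C the protein-free sample after SEC. Each compound was at […] in a 1200-member pool with 20 μM Bcl-2, incubated 1 h at 23° C.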

T1 sequence (P10415 whole entry): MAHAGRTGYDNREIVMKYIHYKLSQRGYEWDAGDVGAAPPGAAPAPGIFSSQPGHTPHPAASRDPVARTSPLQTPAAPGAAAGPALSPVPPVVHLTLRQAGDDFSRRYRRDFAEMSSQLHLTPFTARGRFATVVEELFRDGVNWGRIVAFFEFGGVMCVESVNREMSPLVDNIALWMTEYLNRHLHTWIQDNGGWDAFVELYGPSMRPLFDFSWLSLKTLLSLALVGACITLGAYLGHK

On to `CCOc1cncc(C#Cc2cc(C(=O)N3CCN(c4ccc(C(=O)NCC56CC7CC(CC(C7)C5)C6)cc4)CC3)cc(C(F)(F)F)c2)c1` [B1A042-01, N-(1-Adamantylmethyl)-4-[4-[3-[2-(5-ethoxypyridin-3-yl)ethynyl]-5-(trifluoromethyl)benzoyl]piperazin-1-yl]benzamide], for which the “ASMS ratio (%) n = 1” value is 12.5% and the “ASMS ratio (%) n = 2” value is recorded as −8.5%.
Consider `CCOc1cccc(-c2cnn(-c3cc(C(=O)N4CCN(c5ccc(C(=O)NCC67CC8CC(CC(C8)C6)C7)cc5)CC4)cc(C(F)(F)F)c3)c2)c1` [B1A043-01, N-(1-Adamantylmethyl)-4-[4-[3-[4-(3-ethoxyphenyl)pyrazol-1-yl]-5-(trifluoromethyl)benzoyl]piperazin-1-yl]benzamide], for which the “ASMS ratio (%) n = 1” value is reported as 3.8% and the “ASMS ratio (%) n = 2” value is recorded as −2.9%.
On to `CCOc1cncc(-c2cnn(-c3cc(C(=O)N4CCN(c5ccc(C(=O)NCC67CC8CC(CC(C8)C6)C7)cc5)CC4)cc(C(F)(F)F)c3)c2)c1` [B1A044-01, N-(1-Adamantylmethyl)-4-[4-[3-[4-(5-ethoxypyridin-3-yl)pyrazol-1-yl]-5-(trifluoromethyl)benzoyl]piperazin-1-yl]benzamide], for which the “ASMS ratio (%) n = 1” value was found to be 2.6% and the “ASMS ratio (%) n = 2” value is on record as −1.9%.
For `CCOc1cccc(-c2ccccc2CN2CCN(c3ccc(C(=O)NCC45CC6CC(CC(C6)C4)C5)cc3)CC2)c1` [B1A045-01, N-(1-Adamantylmethyl)-4-[4-[[2-(3-ethoxyphenyl)phenyl]methyl]piperazin-1-yl]benzamide], in that order: 1.1% and −2.2%.
As to `CCOc1cncc(-c2ccccc2CN2CCN(c3ccc(C(=O)NCC45CC6CC(CC(C6)C4)C5)cc3)CC2)c1` [B1A046-01, N-(1-Adamantylmethyl)-4-[4-[[2-(5-ethoxypyridin-3-yl)phenyl]methyl]piperazin-1-yl]benzamide], the “ASMS ratio (%) n = 1” value was 0.0% and the “ASMS ratio (%) n = 2” value is 0.0%.
On to `CCOc1cccc(-c2ccc(CN3CCN(c4ccc(C(=O)NCC56CC7CC(CC(C7)C5)C6)cc4)CC3)cc2C)c1` [B1A047-01, N-(1-Adamantylmethyl)-4-[4-[[4-(3-ethoxyphenyl)-3-methylphenyl]methyl]piperazin-1-yl]benzamide], for which the “ASMS ratio (%) n = 1” value was 3.2% and the “ASMS ratio (%) n = 2” value was found to be 2.5%.
As for `CCOc1cncc(-c2ccc(CN3CCN(c4ccc(C(=O)NCC56CC7CC(CC(C7)C5)C6)cc4)CC3)cc2C)c1` [B1A048-01, N-(1-Adamantylmethyl)-4-[4-[[4-(5-ethoxypyridin-3-yl)-3-methylphenyl]methyl]piperazin-1-yl]benzamide], the “ASMS ratio (%) n = 1” value was 1.5% and the “ASMS ratio (%) n = 2” value is 3.6%.
For `CCOc1cccc(-c2ccc(CN3CCN(c4ccc(C(=O)NCC56CC7CC(CC(C7)C5)C6)cc4)CC3)c(CC)c2)c1` [B1A049-01, N-(1-Adamantylmethyl)-4-[4-[[4-(3-ethoxyphenyl)-2-ethylphenyl]methyl]piperazin-1-yl]benzamide], in that order: 4.1% and −9.1%.
As for `CCOc1cncc(-c2ccc(CN3CCN(c4ccc(C(=O)NCC56CC7CC(CC(C7)C5)C6)cc4)CC3)c(CC)c2)c1` [B1A050-01, N-(1-Adamantylmethyl)-4-[4-[[4-(5-ethoxypyridin-3-yl)-2-ethylphenyl]methyl]piperazin-1-yl]benzamide], the “ASMS ratio (%) n = 1” value was determined as 0.6% and the “ASMS ratio (%) n = 2” value turned out to be 3.0%.
As for `CCOc1cccc(-c2ccc(CN3CCN(c4ccc(C(=O)NCC56CC7CC(CC(C7)C5)C6)cc4)CC3)cc2F)c1` [B1A051-01, N-(1-Adamantylmethyl)-4-[4-[[4-(3-ethoxyphenyl)-3-fluorophenyl]methyl]piperazin-1-yl]benzamide], the “ASMS ratio (%) n = 1” value is reported as −5.4% and the “ASMS ratio (%) n = 2” value is given as −4.2%.
Regarding `CCOc1cncc(-c2ccc(CN3CCN(c4ccc(C(=O)NCC56CC7CC(CC(C7)C5)C6)cc4)CC3)cc2F)c1` [B1A052-01, N-(1-Adamantylmethyl)-4-[4-[[4-(5-ethoxypyridin-3-yl)-3-fluorophenyl]methyl]piperazin-1-yl]benzamide], the “ASMS ratio (%) n = 1” value amounted to 4.2% and the “ASMS ratio (%) n = 2” value is given as −6.2%.
Turning to `CCOc1cccc(-c2ccc(CN3CCN(c4ccc(C(=O)NCC56CC7CC(CC(C7)C5)C6)cc4)CC3)c(OC)c2)c1` [B1A053-01, N-(1-Adamantylmethyl)-4-[4-[[4-(3-ethoxyphenyl)-2-methoxyphenyl]methyl]piperazin-1-yl]benzamide], the “ASMS ratio (%) n = 1” value was found to be 13.2% and the “ASMS ratio (%) n = 2” value turned out to be 4.8%.
For `CCOc1cncc(-c2ccc(CN3CCN(c4ccc(C(=O)NCC56CC7CC(CC(C7)C5)C6)cc4)CC3)c(OC)c2)c1` [B1A054-01, N-(1-Adamantylmethyl)-4-[4-[[4-(5-ethoxypyridin-3-yl)-2-methoxyphenyl]methyl]piperazin-1-yl]benzamide], in that order: 0.0% and 0.0%.
On to `CCOc1cccc(-c2cc(CN3CCN(c4ccc(C(=O)NCC56CC7CC(CC(C7)C5)C6)cc4)CC3)cc(OCC)c2)c1` [B1A055-01, N-(1-Adamantylmethyl)-4-[4-[[3-ethoxy-5-(3-ethoxyphenyl)phenyl]methyl]piperazin-1-yl]benzamide], for which the “ASMS ratio (%) n = 1” value was −0.1% and the “ASMS ratio (%) n = 2” value is given as −14.4%.
As to `CCOc1cncc(-c2cc(CN3CCN(c4ccc(C(=O)NCC56CC7CC(CC(C7)C5)C6)cc4)CC3)cc(OCC)c2)c1` [B1A056-01, N-(1-Adamantylmethyl)-4-[4-[[3-ethoxy-5-(5-ethoxypyridin-3-yl)phenyl]methyl]piperazin-1-yl]benzamide], the “ASMS ratio (%) n = 1” value is recorded as 9.7% and the “ASMS ratio (%) n = 2” value turned out to be 4.0%.
In the case of `CCOc1cccc(-c2cc(CN3CCN(c4ccc(C(=O)NCC56CC7CC(CC(C7)C5)C6)cc4)CC3)cc(OC(C)C)c2)c1` [B1A057-01, N-(1-Adamantylmethyl)-4-[4-[[3-(3-ethoxyphenyl)-5-propan-2-yloxyphenyl]methyl]piperazin-1-yl]benzamide], the “ASMS ratio (%) n = 1” value was determined as 0.0% and the “ASMS ratio (%) n = 2” value was found to be 0.0%.
As to `CCOc1cncc(-c2cc(CN3CCN(c4ccc(C(=O)NCC56CC7CC(CC(C7)C5)C6)cc4)CC3)cc(OC(C)C)c2)c1` [B1A058-01, N-(1-Adamantylmethyl)-4-[4-[[3-(5-ethoxypyridin-3-yl)-5-propan-2-yloxyphenyl]methyl]piperazin-1-yl]benzamide], the “ASMS ratio (%) n = 2” value is recorded as 0.0%.
Take `CCOc1cccc(-c2cc(OC)c(CN3CCN(c4ccc(C(=O)NCC56CC7CC(CC(C7)C5)C6)cc4)CC3)c(OC)c2)c1` [B1A059-01, N-(1-Adamantylmethyl)-4-[4-[[4-(3-ethoxyphenyl)-2,6-dimethoxyphenyl]methyl]piperazin-1-yl]benzamide]: the “ASMS ratio (%) n = 1” value is 7.7% and the “ASMS ratio (%) n = 2” value is on record as −5.5%.
Take `CCOc1cncc(-c2cc(OC)c(CN3CCN(c4ccc(C(=O)NCC56CC7CC(CC(C7)C5)C6)cc4)CC3)c(OC)c2)c1` [B1A060-01, N-(1-Adamantylmethyl)-4-[4-[[4-(5-ethoxypyridin-3-yl)-2,6-dimethoxyphenyl]methyl]piperazin-1-yl]benzamide]: the “ASMS ratio (%) n = 1” value came out at 0.0%.
Take `CCOc1cccc(-c2cc(CN3CCN(c4ccc(C(=O)NCC56CC7CC(CC(C7)C5)C6)cc4)CC3)cc(C(F)(F)F)c2)c1` [B1A061-01, N-(1-Adamantylmethyl)-4-[4-[[3-(3-ethoxyphenyl)-5-(trifluoromethyl)phenyl]methyl]piperazin-1-yl]benzamide]: the “ASMS ratio (%) n = 1” value came out at 5.3% and the “ASMS ratio (%) n = 2” value amounted to 1.1%.
As for `CCOc1cncc(-c2cc(CN3CCN(c4ccc(C(=O)NCC56CC7CC(CC(C7)C5)C6)cc4)CC3)cc(C(F)(F)F)c2)c1` [B1A062-01, N-(1-Adamantylmethyl)-4-[4-[[3-(5-ethoxypyridin-3-yl)-5-(trifluoromethyl)phenyl]methyl]piperazin-1-yl]benzamide], the “ASMS ratio (%) n = 1” value is recorded as −0.3% and the “ASMS ratio (%) n = 2” value is −9.7%.
For `CCOc1cccc(-c2cc(CN3CCN(c4ccc(C(=O)NCC56CC7CC(CC(C7)C5)C6)cc4)CC3)cc(OC(F)(F)F)c2)c1` [B1A063-01, N-(1-Adamantylmethyl)-4-[4-[[3-(3-ethoxyphenyl)-5-(trifluoromethoxy)phenyl]methyl]piperazin-1-yl]benzamide], the “ASMS ratio (%) n = 1” value is recorded as −1.0% and the “ASMS ratio (%) n = 2” value is given as −11.0%.
As to `CCOc1cncc(-c2cc(CN3CCN(c4ccc(C(=O)NCC56CC7CC(CC(C7)C5)C6)cc4)CC3)cc(OC(F)(F)F)c2)c1` [B1A064-01, N-(1-Adamantylmethyl)-4-[4-[[3-(5-ethoxypyridin-3-yl)-5-(trifluoromethoxy)phenyl]methyl]piperazin-1-yl]benzamide], the “ASMS ratio (%) n = 1” value is 5.2% and the “ASMS ratio (%) n = 2” value is −1.6%.
As for `CCOc1cccc(-c2ccc(CN3CCN(c4ccc(C(=O)NCC56CC7CC(CC(C7)C5)C6)cc4)CC3)c3ccccc23)c1` [B1A065-01, N-(1-Adamantylmethyl)-4-[4-[[4-(3-ethoxyphenyl)naphthalen-1-yl]methyl]piperazin-1-yl]benzamide], the “ASMS ratio (%) n = 1” value is given as −32.6% and the “ASMS ratio (%) n = 2” value was −10.4%.
As to `CCOc1cncc(-c2ccc(CN3CCN(c4ccc(C(=O)NCC56CC7CC(CC(C7)C5)C6)cc4)CC3)c3ccccc23)c1` [B1A066-01, N-(1-Adamantylmethyl)-4-[4-[[4-(5-ethoxypyridin-3-yl)naphthalen-1-yl]methyl]piperazin-1-yl]benzamide], the “ASMS ratio (%) n = 1” value is recorded as 8.2% and the “ASMS ratio (%) n = 2” value was 7.7%.
